Measurements as given in patent US7794994B2 (Kemeta, LLC, priority 2001, dated 2010).

Experiments:
[1] = test system: S-ADH from X. autotrophicus strain Py2; experiment: Secondary alcohol dehydrogenase NADH oxidation spectrophotometric assay; format: biochemical, Xanthobacter autotrophicus strain Py2; conditions: for Relative S-ADH Activity (%) X. Py2, alcohol oxidation: alcohol oxidation rates, pH 7.6, 2.5 mM substrate, 0.2 mM NAD+, 2-propanol = 100, NA = no activity detected; for specific activity, alcohol oxidation: at pH 7.8; for Relative S-ADH Activity (%) X. Py2, ketone reduction: ketone reduction rates, pH 6.2, 2.5 mM substrate, 0.2 mM NADH, acetone = 100
Description: (§1) Assays were performed in 2 mL quartz cuvettes and contained NAD(H) (0.2 mM), potassium phosphate buffer (25 mM), and a source of enzyme (cell-free extracts, column fractions, or purified enzyme) in a total reaction volume of 1 mL at pH 6.2 ([…]) at 30° C. Assays were pre-incubated for 1.5 min. at 30° C. with all assay components except substrate. Assays were initiated by addition of substrate (2.5 mM) and monitored over time by measuring the change in absorbance at 340 nm (∈340 of 6.22 mM^−1·cm^−1 for NADH).
Data analysis. Kinetic constants (Km and Vmax) were calculated by fitting initial rate data to the Michaelis-Menten equation and using the software KaleidaGraph Fourth Edition, (Synergy Software, Reading, Pa.).

[2] = test system: S-ADH from strain IP-1; experiment: S-ADH spectrophotometric assay, partially purified S-ADH of isolate IP-1; format: biochemical, isopropanol-grown bacterial strain TDCC IP-1; conditions: for Relative S-ADH Activity (%) IP-1, alcohol oxidation: alcohol oxidation rates, pH 7.6, 2.5 mM substrate, 0.2 mM NAD+, 2-propanol = 100, NA = no activity detected; for Relative S-ADH Activity (%) IP-1, ketone reduction: ketone reduction rates, pH 6.2, 2.5 mM substrate, 0.2 mM NADH, acetone = 100
Description: Protein purifications. […] Secondary alcohol dehydrogenase (S-ADH) from X. autotrophicus Py2 was purified via the following protocol. Cell-free extracts (380 mL) of isopropanol-grown X. autotrophicus Py2 (150 g) were prepared as described above, and applied to a 5×15 cm column of DEAE-Sepharose FAST FLOW (Diethylaminoethyl cross-linked agarose bead material; Catalog number 17-0709-10, Amersham Pharmacia Biotech, Piscataway, N.J.)) equilibrated in buffer A (25 mM MOPS (3-(N-morpholino)propanesulfonic acid), pH 7.6, 5% glycerol, 1 mM dithiothreitol) at a flow rate of 10 mL/min. After loading, the column was washed with […] buffer A and developed with a 2400 mL linear gradient of 90-290 mM KCl in buffer A. Fractions containing S-ADH activity were pooled and dialyzed against 2 L of 25 mM potassium phosphate (pH 6.2) containing 5% glycerol (buffer B) for 16 h at 4° C. […] After washing the column with 30 mL of buffer B, S-ADH was eluted with 20 mL of buffer A containing 10 mM NAD^+. Fractions containing S-ADH were then dialyzed against 2 L of buffer A for 16 h at 4° C., concentrated by ultrafiltration (using a YM30 ultrafiltration membrane; catalog no. 13722, from Millipore, Bedford, Mass.), and frozen in liquid nitrogen. Partially purified S-ADH from bacterial screen cultures was prepared as follows: cell-free extracts from 1 to 5 g of cell paste were prepared as described above and applied to a 5 mL HI TRAP Q column (quaternary, tetraethylammonium, cross-linked agarose bead material for use as an anion exchange matrix; catalog number 17-1153-01, Amersham Pharmacia Biotech) equilibrated in 100 mM MOPS, pH 7.6, containing 5% (v/v) glycerol (buffer C). The column was washed with 10 mL buffer C and developed with a 100 mL linear gradient of 0 to 100 mM NaCl in buffer C. Fractions containing S-ADH activity were pooled, concentrated to 0.5 mL using a 30 kDa MWCO (“molecular weight cut-off”) centrifugal membrane (catalog number UFV4BTK25, Millipore), and stored at −80° C.
as §1

[3] = test system: S-ADH from M. vaccae JOB-5; experiment: S-ADH spectrophotometric assay, propane-grown M. vaccae JOB-5; format: biochemical, Mycobacterium vaccae strain JOB-5; conditions: for Relative S-ADH Activity (%) JOB 5, alcohol oxidation: alcohol oxidation rates, pH 7.6, 2.5 mM substrate, 0.2 mM NAD+, 2-propanol = 100, NA = no activity detected; for Relative S-ADH Activity (%) JOB 5, ketone reduction: ketone reduction rates, pH 6.2, 2.5 mM substrate, 0.2 mM NADH, acetone = 100
Description: as §1

[4] = test system: S-ADH from C. boidinii; experiment: S-ADH spectrophotometric assay, C. boidinii S-ADH; format: biochemical, Candida boidinii; conditions: pH 7.6, 5 mM substrate; for Relative S-ADH Activity (%) C. boidinii, alcohol oxidation: alcohol oxidation rates, 0.2 mM NAD+, 2-propanol = 100; for Relative S-ADH Activity (%) C. boidinii, ketone reduction: ketone reduction rates, 0.2 mM NADH, acetone = 100
Description: as §1, with “Assays were initiated by addition of substrate (2.5 mM) and monitored over time by measuring the change in absorbance at 340 nm (∈340 of 6.22 mM^−1·cm^−1 for NADH).” left out

[5] = biological target: T1, acetone carboxylase coupled to β-hydroxybutyrate dehydrogenase (Xanthobacter versatilis, UniProt Q8RM03+Q8RM04); experiment: Acetone carboxylase coupled to NADH oxidation spectrophotometric assay; format: biochemical, X. autotrophicus strain Py2; conditions: alternative compounds in coupled enzyme system
T1 construct: host or cells: X. autotrophicus strain Py2 (native organism; enzyme obtained from Prof; S. A. Ensign / purified as previously published)
T1 sequence (Q8RM03 1-776): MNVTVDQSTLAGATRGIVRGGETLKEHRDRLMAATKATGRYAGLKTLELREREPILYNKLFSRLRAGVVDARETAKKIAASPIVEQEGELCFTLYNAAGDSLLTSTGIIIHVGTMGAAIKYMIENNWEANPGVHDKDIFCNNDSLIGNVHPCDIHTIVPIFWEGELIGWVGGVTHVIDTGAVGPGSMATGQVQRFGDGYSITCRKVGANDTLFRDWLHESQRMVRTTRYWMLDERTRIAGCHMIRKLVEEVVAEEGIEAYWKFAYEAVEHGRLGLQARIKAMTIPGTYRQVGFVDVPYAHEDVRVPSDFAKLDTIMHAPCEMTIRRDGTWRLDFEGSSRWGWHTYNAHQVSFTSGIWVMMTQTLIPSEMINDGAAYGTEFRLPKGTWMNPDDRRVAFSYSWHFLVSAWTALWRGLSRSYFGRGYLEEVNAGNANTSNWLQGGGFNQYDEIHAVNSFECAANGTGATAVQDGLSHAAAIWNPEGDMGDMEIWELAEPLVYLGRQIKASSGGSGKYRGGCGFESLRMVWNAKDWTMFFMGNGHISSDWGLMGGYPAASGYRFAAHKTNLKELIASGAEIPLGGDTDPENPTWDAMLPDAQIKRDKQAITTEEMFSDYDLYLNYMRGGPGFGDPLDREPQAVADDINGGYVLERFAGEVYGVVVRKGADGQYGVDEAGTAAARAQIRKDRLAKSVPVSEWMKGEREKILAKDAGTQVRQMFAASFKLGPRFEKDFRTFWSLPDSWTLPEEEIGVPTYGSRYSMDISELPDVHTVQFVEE
T1 sequence (Q8RM04 1-717): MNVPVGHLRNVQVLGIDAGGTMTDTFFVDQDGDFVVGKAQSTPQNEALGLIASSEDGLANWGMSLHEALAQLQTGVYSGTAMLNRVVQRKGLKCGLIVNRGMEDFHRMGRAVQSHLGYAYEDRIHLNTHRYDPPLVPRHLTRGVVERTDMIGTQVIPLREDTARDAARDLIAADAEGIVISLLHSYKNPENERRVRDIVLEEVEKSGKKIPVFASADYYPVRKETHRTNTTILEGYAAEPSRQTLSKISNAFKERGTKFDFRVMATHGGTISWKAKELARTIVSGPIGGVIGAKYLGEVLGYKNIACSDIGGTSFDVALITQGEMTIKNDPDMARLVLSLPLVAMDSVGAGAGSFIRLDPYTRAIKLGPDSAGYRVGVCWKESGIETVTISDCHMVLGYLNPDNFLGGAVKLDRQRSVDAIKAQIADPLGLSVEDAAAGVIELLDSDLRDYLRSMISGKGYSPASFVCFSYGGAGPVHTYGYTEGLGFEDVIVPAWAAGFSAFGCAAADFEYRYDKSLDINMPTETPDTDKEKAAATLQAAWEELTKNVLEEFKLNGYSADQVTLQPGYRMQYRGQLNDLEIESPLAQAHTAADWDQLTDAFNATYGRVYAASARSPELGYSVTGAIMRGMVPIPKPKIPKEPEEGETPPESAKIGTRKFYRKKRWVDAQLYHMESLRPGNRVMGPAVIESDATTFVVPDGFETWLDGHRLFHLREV
T1 sequence (Q8RM02 2-168 partner limits assumed): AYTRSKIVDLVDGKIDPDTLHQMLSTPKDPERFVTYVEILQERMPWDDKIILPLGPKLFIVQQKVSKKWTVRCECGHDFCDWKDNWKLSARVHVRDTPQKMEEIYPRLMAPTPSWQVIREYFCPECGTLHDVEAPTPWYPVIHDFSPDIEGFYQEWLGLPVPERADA
Description: Assays were performed in 2 mL (1 cm path length) quartz cuvettes that had been modified by fusing a serum bottle-style quartz top (7×13 mm at mouth), allowing the cuvettes to be sealed with a red rubber serum stopper. […] The addition of […] (3 U) and NADH (0.2 mM) allowed acetoacetate formation to be coupled to the oxidation of NADH. […] The reaction was monitored by measuring the decrease in absorbance at 340 nm (∈340 of 6.22 mM^−·cm^−1 for NADH) over time in an Agilent Technologies (Palo Alto, Calif.) model 8453 UV-Visible Spectroscopy System containing a thermostat-controlled cell holder at 30° C.

[6] = biological target: T2, S-ADH from T. brockii (Thermoanaerobacter brockii, UniProt P14941); experiment: S-ADH spectrophotometric assay, T. brockii S-ADH; format: biochemical, Thermoanaerobium brockii; conditions: for Relative S-ADH Activity (%) T. brockii, ketone reduction: ketone reduction rates, pH 6.2, 2.5 mM substrate, 0.2 mM NADPH, acetone = 100
T2 sequence (P14941 1-352): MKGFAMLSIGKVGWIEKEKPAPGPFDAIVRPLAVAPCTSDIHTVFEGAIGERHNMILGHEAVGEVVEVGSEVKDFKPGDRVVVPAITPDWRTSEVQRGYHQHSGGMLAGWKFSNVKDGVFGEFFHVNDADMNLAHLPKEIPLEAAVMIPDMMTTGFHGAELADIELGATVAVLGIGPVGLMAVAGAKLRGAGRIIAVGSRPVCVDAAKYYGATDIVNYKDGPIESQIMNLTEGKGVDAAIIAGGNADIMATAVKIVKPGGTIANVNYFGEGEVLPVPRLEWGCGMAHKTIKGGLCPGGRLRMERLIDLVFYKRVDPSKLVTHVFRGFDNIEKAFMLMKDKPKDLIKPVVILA
Description: […] Assays were pre-incubated for 1.5 min. at 30° C. with all assay components except substrate. Assays were initiated by addition of substrate (2.5 mM) and monitored over time by measuring the change in absorbance at 340 nm (∈340 of 6.22 mM^−1·cm^−1 for NADH).

SMILES	Relative S-ADH Activity (%) X. Py2, alcohol oxidation [1] [%]	specific activity, alcohol oxidation [1]	Relative S-ADH Activity (%) IP-1, alcohol oxidation [2] [%]	Relative S-ADH Activity (%) JOB 5, alcohol oxidation [3] [%]	Relative S-ADH Activity (%) C. boidinii, alcohol oxidation [4] [%]	activity as substrate and inhibition of acetone carboxylation activity [5]	Relative S-ADH Activity (%) T. brockii, alcohol oxidation ([6]; alcohol oxidation rates, pH 7.6, 2.5 mM substrate, 0.2 mM NADP+, 2-propanol = 100, NA = no activity detected) [%]	Relative S-ADH Activity (%) X. Py2, ketone reduction [1] [%]	Relative S-ADH Activity (%) IP-1, ketone reduction [2] [%]	Relative S-ADH Activity (%) JOB 5, ketone reduction [3] [%]	Relative S-ADH Activity (%) T. brockii, ketone reduction [6] [%]	Relative S-ADH Activity (%) C. boidinii, ketone reduction [4] [%]
CCCCO [1-Butanol]	7	1.7±0.2 μmol alcohol oxidized min^−1mg^−1 protein	2	10	6	not active nor did they inhibit acetone carboxylation activity	–	–	–	–	–	–
CCCCCO [1-Pentanol]	–	No activity	–	–	8	–	–	–	–	–	–	–
CCCC(C)O (centres unmarked) [2-Pentanol]	157	–	18	68	22	–	38	–	–	–	–	–
CCCC(C)=O [2-Pentanone]	–	–	–	–	–	–	–	198	44	185	59	16
CCC(=O)CC [3-Pentanone]	–	–	–	–	–	–	–	180	5	26	49	60
